This passage reports IC50 results from patent US20260207565A1, “COMPOUNDS THAT INHIBIT PKMYT1” (Exelixis, Inc., priority 2022, published 2026).

Like-named read-outs stand apart in the source and are kept apart here.

Test [1] concerns the target T1, PKMYT1 (Homo sapiens, UniProt Q99640).
T1 construct: PKMYT1 (93 kD, full length, N-terminal GST tag from Signal Chem); GST (N); purchased Signal Chem
T1 sequence (Q99640 1-499): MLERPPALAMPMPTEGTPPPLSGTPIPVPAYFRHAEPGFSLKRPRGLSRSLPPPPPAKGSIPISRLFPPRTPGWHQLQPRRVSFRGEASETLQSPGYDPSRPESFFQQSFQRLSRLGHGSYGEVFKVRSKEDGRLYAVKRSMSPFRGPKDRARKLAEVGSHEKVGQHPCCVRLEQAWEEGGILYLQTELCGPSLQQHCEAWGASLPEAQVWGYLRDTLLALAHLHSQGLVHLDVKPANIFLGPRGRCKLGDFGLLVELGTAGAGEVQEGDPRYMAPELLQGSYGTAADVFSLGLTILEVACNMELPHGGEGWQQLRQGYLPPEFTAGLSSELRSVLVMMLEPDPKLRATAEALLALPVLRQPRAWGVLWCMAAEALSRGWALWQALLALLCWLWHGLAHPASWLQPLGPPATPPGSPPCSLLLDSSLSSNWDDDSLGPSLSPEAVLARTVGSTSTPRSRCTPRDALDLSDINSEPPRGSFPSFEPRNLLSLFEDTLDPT
The test is described as follows: ADP-Glo PKMYT1 ATP-depletion assay. To be noted: 50 nM PKMYT1, 13.3 nM CDK1, 88 μM ATP, 120 minutes at RT, read-out: Biochemical IC50. As for the experimental part:
(§1) Biochemical IC50 values were determined via ADP-Glo™ assay. Cellular IC50 values were determined via AlphaLISA assay.
ADP-Glo™ PKMYT1 ATP-depletion assay. The activity of PKMYT1 is measured using a luciferase-luciferin based ATP detection reaction to quantify ATP depletion resulting from kinase-catalyzed phosphoryl transfer to CDK1 or autophosphorylation of PKMYT1. The ADP generated as a byproduct of the reaction is converted to ATP and used to drive a luciferase reaction. Test compounds were dissolved in DMSO and dispensed into Corning 3824 384-well plates prior to the experiment such that the final DMSO concentration was <10%. To the compounds was added 3 μL of PKMYT1 (93 kD, full length, N-terminal GST tag from Signal Chem). The reaction was started by the addition of 2 μL of CDK1 (58 kDa, full length, N-terminal GST tag from Signal Chem) and ATP in assay buffer (50 mM Hepes, 40 mM NaCl, 10 mM MgCl2, 1 mM DTT, 0.1 mg/mL BSA, 2.5 mM MnCl2). Final assay concentrations were 50 nM PKMYT1, 13.3 nM CDK1, and 88 μM ATP. Plates were centrifuged for 1 minute at 1000 RPM and incubated at RT for 120 minutes. After the incubation period, ADP-Glo™ reagent was added and the plates were incubated for another 40 minutes before finally adding the kinase detection reagent, 30 minutes after the addition, plates were placed on a PHERAstar® plate reader and read using the Luminescence Protocol, integration time at 0.5 seconds.
On the technique in general: In ADP-Glo the light output rises with the ADP produced.

The test system of test [2] is phosphorylation of CDK1 at Thr14 in HCC1806 cells. The test is described as follows: Cell lysate AlphaLISA assay measuring inhibition of phosphorylation of CDK1 Thr14. Format: cell-based. To be noted: compounds incubated 4 hours, AlphaLISA SureFire Ultra CDK1 Thr14, read-out: Cellular IC50. As for the experimental part:
as §1
Cell lysate AlphaLISA® assay measuring inhibition of phosphorvlation of CDK1 Thr14. Inhibition of phosphorylation of CDK1 at Thr14 was determined using AlphaLISAn SureFire® Ultra™ Kit from Perkin Elmer (ALSU-PCDK1-A10K). HCC1806 cells were seeded at 2K cells per well (50 μl/well) in 384-well plates (Corning 3570) and stored overnight at 37° C. and 5% CO2. The following day, the compounds dissolved in DMSO were introduced to the cells and incubated for 4 hours at 37° C. and 5% CO2. The cells were then washed with PBS using Blue® Washer and 10 μl of lysis buffer containing protease inhibitor was added. The plate was placed on an orbital shaker (at 4° C.) for 30 minutes and stored overnight at −80° C. for complete lysing. The next day, the plates were thawed at room temperature for at least 30 min. Reagents were prepared in a dimmed light setting (<100 lumens). The assay was run by first adding 5 μl of the acceptor mix (reaction buffer 1: reaction buffer 2:activation buffer:acceptor beads 47:47:4:2), covering the plate with foil, shaking for 2 minutes, and incubating at RT for 60 minutes. The donor mix (dilution buffer:donor beads 47:3) was then added at 5 μl per well, placed on the shaker for 2 minutes and incubated at RT for 60 minutes before reading the plates on a PHERAstar® plate reader. The results were normalized to DMSO (0% Inhibition) and 3 μM of reference compound.

A word on the IC50: it is the midpoint of a concentration-inhibition curve. On to `Cc1c(O)cccc1-c1c(N)c(C(N)=O)nc2c1c(C#N)nn2C` (racemic) [Compound 54, 5-Amino-3-cyano-4-(3-hydroxy-2-methylphenyl)-1-methyl-1H-pyrazolo[3,4-b]pyridine-6-carboxamide], for which the IC50 is under 50 nM in test [1] and 50 to 500 nM in test [2] (Homo sapiens, HCC1806, 4 h).

For `Cc1cn2cc(C(N)=O)c(N)c(-c3cccc(O)c3C)c2n1` [Compound 47, 7-Amino-8-(3-hydroxy-2-methylphenyl)-2-methylimidazo[1,2-a]pyridine-6-carboxamide], the IC50 is 50 to 500 nM in test [1] and at least 5000 nM in test [2] (Homo sapiens, HCC1806, 4 h).

Regarding `Cc1ccc(O)c(C)c1-c1cc(C(N)=O)nc2c1c(C#N)cn2CC(F)F` (atropisomer, axis not shown; (P)) [Compound 93, (P)-3-cyano-1-(2,2-difluoroethyl)-4-(3-hydroxy-2,6-dimethylphenyl)-1H-pyrrolo[2,3-b]pyridine-6-carboxamide], the IC50 in test [1] was under 50 nM; in test [2] (Homo sapiens, HCC1806, 4 h), under 50 nM.

Turning to `Cc1ccc(O)c(C)c1-c1cc(C(N)=O)nc2c1c(C#N)cn2CC(F)(F)F` (single isomer, unassigned) [Compound 25], the half-maximal inhibitory concentration (IC50) is at least 5000 nM in test [1] and at least 5000 nM in test [2] (Homo sapiens, HCC1806, 4 h).

For `Cc1c(O)cccc1-c1c(N)c(C(N)=O)nc2c1c(C#N)cn2C` (single isomer, unassigned) [Compound 6, (P)-5-amino-3-cyano-4-(3-hydroxy-2-methylphenyl)-1-methyl-1H-pyrrolo[2,3-b]pyridine-6-carboxamide], the IC50 lay in the range of 500 to 1000 nM in test [1] and 50 to 500 nM in test [2].

As to `Cc1c(O)cccc1-c1c(N)c(C(N)=O)cn2c(C)nnc12` (single isomer, unassigned) [Compound 53, (M)-7-amino-8-(3-hydroxy-2-methylphenyl)-3-methyl-[1,2,4]triazolo[4,3-a]pyridine-6-carboxamide], the concentration for half-maximal inhibition (IC50) in test [1] and in test [2] was at least 5000 nM throughout.

As to `Cc1c(O)cccc1-c1c(N)c(C(N)=O)cn2cc(C(F)(F)F)nc12` [Compound 49, 7-amino-8-(3-hydroxy-2-methylphenyl)-2-(trifluoromethyl)imidazo[1,2-a]pyridine-6-carboxamide], the 50% inhibitory concentration (IC50) in test [1] is 50 to 500 nM; in test [2] (Homo sapiens, HCC1806, 4 h), at least 5000 nM.

As to `Cc1c(Cl)cncc1-c1c(N)c(C(N)=O)nc2c1c(C#N)c(C)n2C` [Compound 12], the concentration for half-maximal inhibition (IC50) was under 50 nM in test [1] and 50 to 500 nM in test [2] (Homo sapiens, HCC1806, 4 h).

Turning to `Cc1c(O)cccc1-c1c(N)c(C(N)=O)nc2c1c(C#N)nn2C` (single isomer, unassigned) [Compound 58, (M)-5-Amino-3-cyano-4-(3-hydroxy-2-methylphenyl)-1-methyl-1H-pyrazolo[3,4-b]pyridine-6-carboxamide], the IC50 was under 50 nM in test [1] and 50 to 500 nM in test [2].

As for `Cc1ccc(O)c(C)c1-c1cc(C(N)=O)nc2c1c(C#N)c(C)n2C` (racemic) [Compound 26, 3-cyano-4-(3-hydroxy-2,6-dimethylphenyl)-1,2-dimethyl-pyrrolo[2,3-b]pyridine-6-carboxamide], the IC50 in test [1] is under 50 nM; in test [2] (Homo sapiens, HCC1806, 4 h), 50 to 500 nM.

For the compound `Cc1ccc(O)c(C)c1-c1c(N)c(C(N)=O)nc2c1ncn2C` (single isomer, unassigned) [Compound 2, (P)-6-Amino-7-(3-hydroxy-2,6-dimethylphenyl)-3-methyl-3H-imidazo[4,5-b]pyridine-5-carboxamide], the IC50 in test [1] and in test [2] was under 50 nM each time.

Turning to `CCn1cc(-c2cn[nH]c2)c2c(-c3cccc(O)c3C)c(N)c(C(N)=O)nc21` (atropisomer, axis not shown; (M)) [Compound 91, (M)-5-amino-1-ethyl-4-(3-hydroxy-2-methylphenyl)-3-(1H-pyrazol-4-yl)-1H-pyrrolo[2,3-b]pyridine-6-carboxamide], the IC50 in test [1] is under 50 nM; in test [2] (Homo sapiens, HCC1806, 4 h), under 50 nM.

In the case of `Cc1c(O)cccc1-c1c(N)c(C(N)=O)nc2c1c(C#N)c(C)n2C` [Compound 9, 5-amino-3-cyano-4-(3-hydroxy-2-methylphenyl)-1,2-dimethyl-1H-pyrrolo[2,3-b]pyridine-6-carboxamide], the half-inhibitory concentration (IC50) in test [1] was under 50 nM; in test [2] (Homo sapiens, HCC1806, 4 h), 50 to 500 nM.

As to `Cc1nc2c(-c3cccc(O)c3C)c(N)c(C(N)=O)cn2c1C` [Compound 48, 7-Amino-8-(3-hydroxy-2-methylphenyl)-2,3-dimethylimidazo[1,2-a]pyridine-6-carboxamide], the IC50 in test [1] was 50 to 500 nM; in test [2] (Homo sapiens, HCC1806, 4 h), at least 5000 nM.

Regarding `Cc1ccc(O)c(C)c1-c1cc(C(N)=O)nc2c1c(C#N)cn2-c1ncccc1F` (atropisomer, axis not shown; (P)) [Compound 68, (P)-3-Cyano-1-(3-fluoropyridin-2-yl)-4-(3-hydroxy-2,6-dimethylphenyl)-1H-pyrrolo[2,3-b]pyridine-6-carboxamide], the IC50 in test [1] was under 50 nM; in test [2] (Homo sapiens, HCC1806, 4 h), under 50 nM.

Regarding `CCn1nc(C(=O)NC)c2c(-c3c(C)ccc(O)c3C)c(N)c(C(N)=O)nc21` [Compound 73, 5-Amino-1-ethyl-4-(3-hydroxy-2,6-dimethylphenyl)-N^3-methyl-1H-pyrazolo[3,4-b]pyridine-3,6-dicarboxamide], the IC50 is under 50 nM in test [1] and under 50 nM in test [2] (Homo sapiens, HCC1806, 4 h).

Turning to `CCn1cc(C#N)c2c(-c3c(C)ccc(O)c3C)cc(C(N)=O)nc21` (single isomer, unassigned) [Compound 79], the IC50 is under 50 nM in test [1] and under 50 nM in test [2] (Homo sapiens, HCC1806, 4 h).

Consider `Cc1ccc(O)c(C)c1-c1c(N)c(C(N)=O)nc2c1c(C(N)=O)nn2C` (atropisomer, axis not shown; (M)) [Compound 74, (M)-5-Amino-4-(3-hydroxy-2,6-dimethylphenyl)-1-methyl-1H-pyrazolo[3,4-b]pyridine-3,6-dicarboxamide], for which the IC50 in test [1] is under 50 nM; in test [2] (Homo sapiens, HCC1806, 4 h) it was under 50 nM.

Regarding `Cc1ccc(O)c(C)c1-c1cc(C(N)=O)nc2c1c(C#N)cn2C(C)C` (atropisomer, axis not shown; (P)) [Compound 88, (P)-3-cyano-4-(3-hydroxy-2,6-dimethylphenyl)-1-isopropyl-1H-pyrrolo[2,3-b]pyridine-6-carboxamide], the IC50 in test [1] is under 50 nM; in test [2] (Homo sapiens, HCC1806, 4 h) it was under 50 nM.

`Cc1ccc(O)c(C)c1-c1c(N)c(C(N)=O)nc2c1ncn2C(C)C` (single isomer, unassigned) [Compound 83, (P)-6-amino-7-(3-hydroxy-2,6-dimethylphenyl)-3-isopropyl-3H-imidazo[4,5-b]pyridine-5-carboxamide]: the half-inhibitory concentration (IC50) in test [1] was under 50 nM; in test [2] (Homo sapiens, HCC1806, 4 h) it was under 50 nM.

Regarding `Cc1ccc(O)c(C)c1-c1c(N)c(C(N)=O)nc2c1ncn2C` (single isomer, unassigned) [Compound 3, (M)-6-amino-7-(3-hydroxy-2,6-dimethylphenyl)-3-methyl-3H-imidazo[4,5-b]pyridine-5-carboxamide], the IC50 in test [1] is 1000 to 5000 nM; in test [2], at least 5000 nM.

`CNC(=O)c1cc(-c2c(C)ccc(O)c2C)c2[nH]ncc2c1` [Compound 38]: the 50% inhibitory concentration (IC50) in test [1] was at least 5000 nM; in test [2] (Homo sapiens, HCC1806, 4 h), 1000 to 5000 nM.

On to `Cc1ccc(O)c(C)c1-c1c(N)c(C(N)=O)nc2c1c(C#N)cn2C` [Compound 13], for which the 50% inhibitory concentration (IC50) in test [1] is under 50 nM; in test [2] (Homo sapiens, HCC1806, 4 h), under 50 nM.
